This is an account of results in patent US20100168102A9, “Amide Derivatives as Kinase Inhibitors” (Devgen NV, priority 2005, published 2010).

Counter-ions that a name gives are not always drawn. Like-named read-outs stand apart in the source and are kept apart here.

In one assay the target is T1, PKC epsilon (Homo sapiens, UniProt Q02156).
T1 construct: purchased Invitrogen P2282
T1 sequence (Q02156 1-737): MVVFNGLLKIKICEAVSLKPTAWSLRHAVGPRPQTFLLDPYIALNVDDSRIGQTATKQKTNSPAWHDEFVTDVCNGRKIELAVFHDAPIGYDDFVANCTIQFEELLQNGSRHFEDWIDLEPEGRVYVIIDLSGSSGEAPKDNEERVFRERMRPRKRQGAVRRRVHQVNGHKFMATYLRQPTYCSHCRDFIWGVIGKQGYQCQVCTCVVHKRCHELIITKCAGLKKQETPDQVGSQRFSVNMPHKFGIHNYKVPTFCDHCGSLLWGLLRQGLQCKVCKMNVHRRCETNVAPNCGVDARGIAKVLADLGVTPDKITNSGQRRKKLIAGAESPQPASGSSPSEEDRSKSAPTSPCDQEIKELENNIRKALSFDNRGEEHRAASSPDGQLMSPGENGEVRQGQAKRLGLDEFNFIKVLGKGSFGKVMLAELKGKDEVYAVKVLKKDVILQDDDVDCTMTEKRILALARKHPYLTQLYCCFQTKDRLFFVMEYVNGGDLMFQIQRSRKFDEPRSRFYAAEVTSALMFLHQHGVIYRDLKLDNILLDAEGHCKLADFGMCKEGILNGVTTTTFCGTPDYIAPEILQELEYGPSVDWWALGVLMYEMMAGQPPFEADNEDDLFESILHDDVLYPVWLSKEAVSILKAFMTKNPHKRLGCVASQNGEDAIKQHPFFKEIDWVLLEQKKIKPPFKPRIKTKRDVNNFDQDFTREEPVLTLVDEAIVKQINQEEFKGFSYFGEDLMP
In words: Biochemical assay for PKC epsilon (fluorescence polarization, Protein Kinase C Assay Kit, Red). The settings on record: read-out: IC50 μM PKCε. The method, boiled down: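 Read-out was fluorescence-polarization competition between phosphorylated substrate and a rhodamine PKC tracer for an anti-phosphoserine antibody, added with EDTA stop after an 80 min room-temperature kinase reaction with ATP and protein substrate (Mg2+/Ca2+ buffer). Enzyme (10 ng/ml final) was preincubated with compound for 30 min.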

For a further assay, the target named is T2, human ROCKα/ROCKII mix (Homo sapiens, UniProt O75116).
T2 construct: purchased Upstate Biotechnology 14-451
Description: Biochemical assay for ROCK (fluorescence polarization, ROCK IMAP Kit).

Setting [1] is: Table 2, compounds of Formula XIII.
Where [2] appears, read: compounds of Formula XIV, Table 3.

T2 sequence (O75116 11-552 limits assumed): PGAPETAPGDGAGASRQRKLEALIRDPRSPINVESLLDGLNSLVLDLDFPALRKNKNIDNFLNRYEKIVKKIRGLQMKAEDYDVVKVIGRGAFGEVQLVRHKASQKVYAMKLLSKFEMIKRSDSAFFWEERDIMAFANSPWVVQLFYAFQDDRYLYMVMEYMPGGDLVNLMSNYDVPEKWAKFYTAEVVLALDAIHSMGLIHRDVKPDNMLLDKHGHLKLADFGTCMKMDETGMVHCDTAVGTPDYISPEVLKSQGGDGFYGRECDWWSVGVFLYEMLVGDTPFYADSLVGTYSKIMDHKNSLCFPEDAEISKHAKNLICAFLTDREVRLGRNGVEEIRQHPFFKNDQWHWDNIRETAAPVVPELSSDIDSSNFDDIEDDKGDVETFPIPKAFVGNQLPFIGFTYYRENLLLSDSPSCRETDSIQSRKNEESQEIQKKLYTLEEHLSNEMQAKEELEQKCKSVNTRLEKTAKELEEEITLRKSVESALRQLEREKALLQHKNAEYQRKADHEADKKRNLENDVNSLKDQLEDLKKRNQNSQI

Turning to `CC(C)(C)ON=Cc1cccc(C(=O)NCC(N)c2ccc(C(=O)Nc3ccncc3)cc2)c1` (racemic) [Compound 101, 4-{1-amino-2-[(3-tert-butoxyimino-methyl)-benzoylamino]-ethyl}-N-pyridin-4-yl-benzamide], the concentration for half-maximal inhibition (IC50) at PKC epsilon (setting [1]) and on human ROCKα/ROCKII mix (setting [1]) was 0.5 to 5 µM in each case.

`CC(C)(C(=O)NCC(N)c1ccc(C(=O)Nc2ccncc2)cc1)c1ccsc1` (centres unmarked) [Compound 346, 4-[1-Amino-2-(2-methyl-2-thiophen-3-yl-propionylamino)-ethyl]-N-pyridin-4-yl-benzamide]: the IC50 at PKC epsilon (setting [1]) and on human ROCKα/ROCKII mix (setting [1]) was 0.05 to 0.5 µM throughout.

Consider `NC(CNC(=O)NCc1ccccc1)c1ccc(C(=O)Nc2ccncc2)cc1` (centres unmarked) [Compound 7, 4-[1-amino-2-(3-benzyl-ureido)-ethyl]-N-pyridin-4-yl-benzamide], for which the results for the IC50 at PKC epsilon and against human ROCKα/ROCKII mix were 0.5 to 5 µM and 0.05 to 0.5 µM, respectively.

In the case of `N#Cc1cccc(C(=O)NCC(N)c2ccc(C(=O)Nc3ccncc3)cc2)c1` (centres unmarked) [Compound 94, 4-[1-amino-2-(3-cyano-benzoylamino)-ethyl]-N-pyridin-4-yl-benzamide], the IC50 on PKC epsilon (setting [1]) and at human ROCKα/ROCKII mix (setting [1]) was 0.5 to 5 µM throughout.

Consider `CS(=O)(=O)c1ccc(CNC(=O)CC(N)c2ccc(C(=O)Nc3ccncc3)cc2)cc1` (centres unmarked) [Compound 275, 4-[1-Amino-2-(4-methanesulfonyl-benzylcarbamoyl)-ethyl]-N-pyridin-4-yl-benzamide], for which the IC50 lay within 0.5 to 5 µM on PKC epsilon (setting [2]) and 0.05 to 0.5 µM against human ROCKα/ROCKII mix (setting [2]).

`COc1ccc(CNC(=O)CC(N)c2ccc(C(=O)Nc3ccncc3)cc2)cc1OC` (centres unmarked) [Compound 240, 4-[1-Amino-2-(3,4-dimethoxy-benzylcarbamoyl)-ethyl]-N-pyridin-4-yl-benzamide]: the IC50 at PKC epsilon (setting [2]) was in the range of 5 to 50 µM; on human ROCKα/ROCKII mix (setting [2]) it was 0.05 to 0.5 µM.

`CC(C)(C(=O)NCC(N)c1ccc(C(=O)Nc2ccncc2)cc1)c1ccc(F)cc1F` (centres unmarked) [Compound 384, 4-{1-Amino-2-[2-(2,4-difluoro-phenyl)-2-methyl-propionylamino]-ethyl}-N-pyridin-4-yl-benzamide]: the figures for the half-maximal inhibitory concentration (IC50) at PKC epsilon (setting [1]) and against human ROCKα/ROCKII mix (setting [1]) were less than 0.05 µM and 0.05 to 0.5 µM, respectively.

Regarding `NC(CNC(=O)C1(c2ccc(Cl)c(Cl)c2)CC1)c1ccc(C(=O)Nc2ccncc2)cc1` (centres unmarked) [Compound 345, 4-(1-Amino-2-{[1-(3,4-dichloro-phenyl)-cyclopropanecarbonyl]-amino}-ethyl)-N-pyridin-4-yl-benzamide], the half-inhibitory concentration (IC50) on PKC epsilon (setting [1]) and at human ROCKα/ROCKII mix (setting [1]) was 0.05 to 0.5 µM throughout.

For the compound `NC(CC(=O)NCCc1ccccc1Cl)c1ccc(C(=O)Nc2ccncc2)cc1` (centres unmarked) [Compound 297, 4-{1-Amino-2-[2-(2-chloro-phenyl)-ethylcarbamoyl]-ethyl}-N-pyridin-4-yl-benzamide], the values for the IC50 on PKC epsilon (setting [2]) and on human ROCKα/ROCKII mix (setting [2]) were 0.5 to 5 µM and 0.05 to 0.5 µM, respectively.

“4-[1-amino-2-(N′-butyl- hydrazinocarbonyl)-ethyl]-N- pyridin-4-yl-benzamide [Compound 324]”: the IC50 at PKC epsilon (setting [2]) fell in the range of 0.5 to 5 µM; on human ROCKα/ROCKII mix (setting [2]), 0.05 to 0.5 µM.

Turning to `NC(c1ccc(C(=O)Nc2ccncc2)cc1)C1CCCN1C(=O)Cc1c(F)cccc1F` (centres unmarked) [Compound 584, 4-(Amino-{1-[2-(2,6-difluoro-phenyl)-acetyl]-pyrrolidin-2-yl}-methyl)-N-pyridin-4-yl-benzamide], the IC50 at PKC epsilon is 5 to 50 µM; against human ROCKα/ROCKII mix, 0.5 to 5 µM.

On to `CC(C)(C)c1ccc(CCNC(=O)CC(N)c2ccc(C(=O)Nc3ccncc3)cc2)cc1` (centres unmarked) [Compound 285, 4-{1-Amino-2-[2-(4-tert-butyl-phenyl)-ethylcarbamoyl]-ethyl}-N-pyridin-4-yl-benzamide], for which the IC50 is 5 to 50 µM on PKC epsilon (setting [2]) and 0.05 to 0.5 µM against human ROCKα/ROCKII mix (setting [2]).

Take `NC(CC(=O)NCc1cccc(OC(F)(F)F)c1)c1ccc(C(=O)Nc2ccncc2)cc1` (centres unmarked) [Compound 270, 4-[1-Amino-2-(3-trifluoromethoxy-benzylcarbamoyl)-ethyl]-N-pyridin-4-yl-benzamide]: the 50% inhibitory concentration (IC50) on PKC epsilon (setting [2]) was 0.5 to 5 µM; against human ROCKα/ROCKII mix (setting [2]) it was 0.05 to 0.5 µM.

In the case of `NC(CNC(=O)NC1CCCC1)c1ccc(C(=O)Nc2ccncc2)cc1` (centres unmarked) [Compound 4, 4-[1-amino-2-(3-cyclopentyl-ureido)-ethyl]-N-pyridin-4-yl-benzamide], the IC50 on PKC epsilon and at human ROCKα/ROCKII mix was 0.5 to 5 µM each time.

With `NC(CC(=O)NCCc1ccc(Cl)c(Cl)c1)c1ccc(C(=O)Nc2ccncc2)cc1` (centres unmarked) [Compound 304], the 50% inhibitory concentration (IC50) on PKC epsilon (setting [2]) fell in the range of 0.5 to 5 µM; on human ROCKα/ROCKII mix (setting [2]), 0.05 to 0.5 µM.

“4-{1-Amino-2-[(4-methoxy- cyclohexanecarbonyl)-amino]-ethyl}- N-pyridin-4-yl-benzamide [Compound 44]”: the IC50 on PKC epsilon (setting [1]) lay in the range of 5 to 50 µM; against human ROCKα/ROCKII mix (setting [1]), 0.5 to 5 µM.

For `NC(CNC(=O)Cc1ccc(F)cc1)c1ccc(C(=O)Nc2ccncc2)cc1` (centres unmarked) [Compound 148, 4-{1-Amino-2-[2-(4-fluoro-phenyl)-acetylamino]-ethyl}-N-pyridin-4-yl-benzamide], the IC50 on PKC epsilon (setting [1]) and against human ROCKα/ROCKII mix (setting [1]) was 0.05 to 0.5 µM in each case.

Turning to “4-(1-Amino-2-{[2-(4- trifluoromethyl-phenyl)- acetyl]-methyl- amino}-ethyl)- N-pyridin-4-yl-benzamide [Compound 458]”, the IC50 on PKC epsilon is 5 to 50 µM; against human ROCKα/ROCKII mix, 0.5 to 5 µM.

With `NC(CNC(=O)C1(c2ccc(F)cc2F)CC1)c1ccc(C(=O)Nc2ccncc2)cc1` (centres unmarked) [Compound 385, 4-(1-Amino-2-{[1-(2,4-difluoro-phenyl)-cyclopropanecarbonyl]-amino}-ethyl)-N-pyridin-4-yl-benzamide], the figures for the IC50 on PKC epsilon (setting [1]) and against human ROCKα/ROCKII mix (setting [1]) were less than 0.05 µM and 0.05 to 0.5 µM, respectively.

Turning to `CC[C@H](NC(=O)CC(N)c1ccc(C(=O)Nc2ccncc2)cc1)c1ccccc1` (stereo partly drawn) [Compound 217, 4-[1-Amino-2-(1-(S)-phenyl-propylcarbamoyl)-ethyl]-N-pyridin-4-yl-benzamide], the values for the IC50 at PKC epsilon (setting [2]) and against human ROCKα/ROCKII mix (setting [2]) were 0.5 to 5 µM and 0.05 to 0.5 µM, respectively.

`NC(CNC(=O)c1nccc2ccccc12)c1ccc(C(=O)Nc2ccncc2)cc1` (centres unmarked) [Compound 110, Isoquinoline-1-carboxylic acid {2-amino-2-[4-(pyridin-4-ylcarbamoyl)-phenyl]-ethyl}-amide]: the IC50 at PKC epsilon (setting [1]) and at human ROCKα/ROCKII mix (setting [1]) was 0.5 to 5 µM in each case.

As to `NC(CNC(=O)CC1Cc2ccccc2C1)c1ccc(C(=O)Nc2ccncc2)cc1` (centres unmarked) [Compound 49, 4-[1-Amino-2-(2-indan-2-yl-acetylamino)-ethyl]-N-pyridin-4-yl-benzamide], the IC50 at PKC epsilon (setting [1]) lay within 0.5 to 5 µM; on human ROCKα/ROCKII mix (setting [1]), 0.05 to 0.5 µM.

On to `N[C@@H](CC(=O)NCc1ccc(F)cc1)c1ccc(C(=O)Nc2ccncc2)cc1` [Compound 402, 4-[(S)-1-Amino-2-(4-fluoro-benzylcarbamoyl)-ethyl]-N-pyridin-4-yl-benzamide dihydrochloric acid salt], for which the IC50 on PKC epsilon and against human ROCKα/ROCKII mix was 0.05 to 0.5 µM throughout.

As for `NC(CNC(=O)C1CCCO1)c1ccc(C(=O)Nc2ccncc2)cc1` (centres unmarked) [Compound 66, Tetrahydro-furan-2-carboxylic acid {2-amino-2-[4-(pyridin-4-ylcarbamoyl)-phenyl]-ethyl}-amide], the IC50 is 5 to 50 µM on PKC epsilon (setting [1]) and 0.5 to 5 µM against human ROCKα/ROCKII mix (setting [1]).

Turning to `NC(CC(=O)NCc1cc(Cl)cc(Cl)c1)c1ccc(C(=O)Nc2ccncc2)cc1` (centres unmarked) [Compound 250, 4-[1-Amino-2-(3,5-dichloro-benzylcarbamoyl)-ethyl]-N-pyridin-4-yl-benzamide], the IC50 on PKC epsilon (setting [2]) is 0.5 to 5 µM; on human ROCKα/ROCKII mix (setting [2]), 0.05 to 0.5 µM.
